The numbers were not newly measured in patent US20240082270A1 (priority 2021, published 2024), which cites them from elsewhere.

Where two headings read alike, the source gives them in different places.

The conditions of data set [1]: dog, 2 weeks of high twice daily dosing.
For data set [2] the following is noted: rat, in vivo.
For data set [3] the following is noted: mouse, in vivo.
For data set [4] the following is noted: animal studies.
The test system of data set [5] is human bladder.
The test system of data set [6] is methicillin resistant Staphylococcus aureus (MRSA).
For data set [7] the following is noted: mouse, in vivo. This is another data set of the same source.
Data set [8] deals with mouse bladder. Conditions: induced by acetylcholine.

Regarding `CCCCCc1cc(O)c(C/C=C(\C)CCC=C(C)C)c(O)c1` [CBG, cannabigerol], the “adverse effects monitored by blood testing” value in data set [1] was “no adverse effects”. Besides, in data set [2], the appetite result was “increased appetite”. Besides, the “effect on hyperthermia-induced seizures” value in data set [3] is “Neither CBG nor CBGV affected thresholds”. Also, the “time of peak brain concentrations” value in [4] was 2 h. In addition, the bioavailability (oral ingestion) is listed as 13-19%, the bioavailability (sublingual administration) was 13-56% and the bioavailability (topical applications) is given as 5-10%. The acetylcholine-induced contractions result in [5] is “reduce acetylcholine-induced contractions”. The “efficacy in murine systemic infection model” value in [6] (MRSA) was “demonstrate in vivo efficacy”. In addition, in data set [6] (mouse, in vivo), the MRSA biofilm formation entry is reported as “represses MRSA biofilm formation”. Moreover, the rotarod performance entry in [7] was “significantly recovered their rotarod performance”. Further, the “ranked potency of detrusor contraction inhibition” value in [8] is given as “CBG=THCV>CBD>CBDV, but not CBC”.
